{"source": "ChEMBL document CHEMBL5465560", "about": "“Selectivity Literature for EUbOPEN Chemogenomic Library” (2024)", "key": {"[1]": {"biological_target": "5-hydroxytryptamine receptor 1B (Homo sapiens) (UniProt P28222)", "experiment": "Selectivity interaction (Panel of non-epigenetic targets (kinases, GPCRs, ion channels, and transporters, Eurofins) ) EUB0000271b HTR1B", "conditions": "at 1 µM"}, "[2]": {"biological_target": "T1, Tyrosine-protein kinase receptor TYRO3 (Homo sapiens) (UniProt Q06418)", "T1 sequence (whole entry)": "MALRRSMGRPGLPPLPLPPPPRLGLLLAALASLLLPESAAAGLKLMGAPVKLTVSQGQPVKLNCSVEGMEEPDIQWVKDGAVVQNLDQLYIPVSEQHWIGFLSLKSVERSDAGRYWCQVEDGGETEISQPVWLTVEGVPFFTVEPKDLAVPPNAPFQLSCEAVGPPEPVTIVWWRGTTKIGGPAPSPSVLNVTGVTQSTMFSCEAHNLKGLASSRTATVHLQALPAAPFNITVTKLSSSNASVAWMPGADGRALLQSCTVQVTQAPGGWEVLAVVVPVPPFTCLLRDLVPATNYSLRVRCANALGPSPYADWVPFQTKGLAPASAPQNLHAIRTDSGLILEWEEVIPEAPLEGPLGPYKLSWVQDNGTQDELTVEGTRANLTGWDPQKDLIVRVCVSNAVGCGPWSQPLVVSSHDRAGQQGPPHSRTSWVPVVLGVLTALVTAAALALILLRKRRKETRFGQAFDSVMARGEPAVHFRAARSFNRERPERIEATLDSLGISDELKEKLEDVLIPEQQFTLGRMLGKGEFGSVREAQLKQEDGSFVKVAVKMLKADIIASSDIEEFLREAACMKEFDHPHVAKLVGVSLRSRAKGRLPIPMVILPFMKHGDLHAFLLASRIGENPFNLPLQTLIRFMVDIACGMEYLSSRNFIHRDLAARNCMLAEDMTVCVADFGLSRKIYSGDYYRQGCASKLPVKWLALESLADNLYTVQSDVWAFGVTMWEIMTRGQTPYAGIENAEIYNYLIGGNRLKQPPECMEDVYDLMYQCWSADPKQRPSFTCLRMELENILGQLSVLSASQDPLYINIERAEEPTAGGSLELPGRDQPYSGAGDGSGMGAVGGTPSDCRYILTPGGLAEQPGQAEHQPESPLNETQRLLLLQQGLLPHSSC", "experiment": "Selectivity interaction (Ambit KINOMEscan and KiNATiv profiling in Jurkat cells) EUB0000090b TYRO3", "type": "cell-based", "conditions": "at 1 µM"}, "[3]": {"biological_target": "Serine/threonine-protein kinase MARK1 (Homo sapiens) (UniProt Q9P0L2)", "sequence (Q9P0L2 whole entry, looked up)": "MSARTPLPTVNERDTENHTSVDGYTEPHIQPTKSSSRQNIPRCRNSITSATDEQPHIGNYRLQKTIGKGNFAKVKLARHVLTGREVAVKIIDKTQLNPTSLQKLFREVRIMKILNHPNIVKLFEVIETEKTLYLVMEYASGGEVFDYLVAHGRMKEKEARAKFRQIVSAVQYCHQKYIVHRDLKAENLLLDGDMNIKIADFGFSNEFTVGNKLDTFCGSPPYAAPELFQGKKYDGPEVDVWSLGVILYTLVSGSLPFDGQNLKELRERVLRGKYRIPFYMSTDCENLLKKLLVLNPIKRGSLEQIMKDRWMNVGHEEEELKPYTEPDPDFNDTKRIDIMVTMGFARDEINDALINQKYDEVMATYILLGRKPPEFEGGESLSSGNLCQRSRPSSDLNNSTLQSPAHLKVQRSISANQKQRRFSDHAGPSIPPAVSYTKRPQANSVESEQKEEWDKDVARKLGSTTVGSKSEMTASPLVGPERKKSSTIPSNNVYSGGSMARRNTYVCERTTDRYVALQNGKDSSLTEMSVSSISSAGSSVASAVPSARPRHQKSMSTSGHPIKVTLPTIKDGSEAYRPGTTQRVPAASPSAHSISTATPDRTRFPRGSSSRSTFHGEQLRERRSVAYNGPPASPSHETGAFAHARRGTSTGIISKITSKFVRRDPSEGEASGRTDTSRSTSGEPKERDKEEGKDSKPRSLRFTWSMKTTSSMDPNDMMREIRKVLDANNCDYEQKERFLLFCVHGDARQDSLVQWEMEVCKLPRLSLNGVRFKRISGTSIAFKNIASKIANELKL", "experiment": "Selectivity interaction (Kinase panel (literature)) EUB0001199aCl MARK1", "conditions": "at 1 µM"}, "[4]": {"biological_target": "LIM domain kinase 1 (Homo sapiens) (UniProt P53667)", "sequence (P53667 whole entry, looked up, the tested form may be a part)": "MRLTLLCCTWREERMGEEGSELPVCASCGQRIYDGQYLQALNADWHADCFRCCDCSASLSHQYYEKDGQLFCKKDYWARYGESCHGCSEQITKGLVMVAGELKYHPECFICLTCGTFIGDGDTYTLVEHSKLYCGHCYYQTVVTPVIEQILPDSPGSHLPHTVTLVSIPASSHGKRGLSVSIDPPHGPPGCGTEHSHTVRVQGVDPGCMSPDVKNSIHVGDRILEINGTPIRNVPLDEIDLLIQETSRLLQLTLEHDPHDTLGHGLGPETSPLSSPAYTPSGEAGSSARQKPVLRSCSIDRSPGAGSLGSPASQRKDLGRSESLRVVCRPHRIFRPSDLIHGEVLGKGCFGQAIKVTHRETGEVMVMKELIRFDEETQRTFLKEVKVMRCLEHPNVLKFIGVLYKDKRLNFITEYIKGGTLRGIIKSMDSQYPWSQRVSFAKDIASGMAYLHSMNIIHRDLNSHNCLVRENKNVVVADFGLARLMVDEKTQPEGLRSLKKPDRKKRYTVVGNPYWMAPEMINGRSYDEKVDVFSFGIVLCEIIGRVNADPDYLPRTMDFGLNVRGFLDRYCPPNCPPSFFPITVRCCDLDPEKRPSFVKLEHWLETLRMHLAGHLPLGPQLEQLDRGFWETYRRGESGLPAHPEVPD", "experiment": "Selectivity interaction (KinomeScan (DiscoverX)) EUB0001079a LIMK1", "conditions": "at 1 µM"}, "[5]": {"biological_target": "Tyrosine-protein kinase Fer (Homo sapiens) (UniProt P16591)", "sequence (P16591 whole entry, looked up)": "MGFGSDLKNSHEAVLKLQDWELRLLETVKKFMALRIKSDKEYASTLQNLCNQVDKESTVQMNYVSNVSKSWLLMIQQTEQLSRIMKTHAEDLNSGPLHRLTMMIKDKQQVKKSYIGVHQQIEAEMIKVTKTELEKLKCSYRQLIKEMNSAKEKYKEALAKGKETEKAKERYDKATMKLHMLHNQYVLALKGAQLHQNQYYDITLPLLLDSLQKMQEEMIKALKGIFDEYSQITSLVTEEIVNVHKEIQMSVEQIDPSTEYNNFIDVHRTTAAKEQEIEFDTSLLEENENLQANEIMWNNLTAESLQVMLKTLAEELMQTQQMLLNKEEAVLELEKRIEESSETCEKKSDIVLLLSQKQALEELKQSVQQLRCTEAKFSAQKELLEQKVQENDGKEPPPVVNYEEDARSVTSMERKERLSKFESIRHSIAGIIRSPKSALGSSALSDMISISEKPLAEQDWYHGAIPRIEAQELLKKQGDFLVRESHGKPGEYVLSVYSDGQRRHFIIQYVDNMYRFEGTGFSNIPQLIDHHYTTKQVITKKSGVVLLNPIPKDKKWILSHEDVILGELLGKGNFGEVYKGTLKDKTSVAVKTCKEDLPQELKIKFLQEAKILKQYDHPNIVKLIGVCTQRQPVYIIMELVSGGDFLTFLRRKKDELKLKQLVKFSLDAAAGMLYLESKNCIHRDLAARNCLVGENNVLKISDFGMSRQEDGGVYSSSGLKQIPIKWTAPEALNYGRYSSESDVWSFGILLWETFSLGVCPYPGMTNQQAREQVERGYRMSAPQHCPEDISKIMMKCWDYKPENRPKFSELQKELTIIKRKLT", "experiment": "Selectivity interaction (KinomeScan (DiscoverX)) EUB0000607a FER", "conditions": "at 10 µM"}, "[6]": {"biological_target": "Tyrosine-protein kinase ABL1 (Homo sapiens, UniProt P00519)", "experiment": "Selectivity interaction (Kinase panel (Invitrogen)) EUB0000639a ABL1", "conditions": "at 200 nM"}, "[7]": {"biological_target": "RAC-gamma serine/threonine-protein kinase (Homo sapiens, UniProt Q9Y243)", "sequence (Q9Y243 whole entry)": "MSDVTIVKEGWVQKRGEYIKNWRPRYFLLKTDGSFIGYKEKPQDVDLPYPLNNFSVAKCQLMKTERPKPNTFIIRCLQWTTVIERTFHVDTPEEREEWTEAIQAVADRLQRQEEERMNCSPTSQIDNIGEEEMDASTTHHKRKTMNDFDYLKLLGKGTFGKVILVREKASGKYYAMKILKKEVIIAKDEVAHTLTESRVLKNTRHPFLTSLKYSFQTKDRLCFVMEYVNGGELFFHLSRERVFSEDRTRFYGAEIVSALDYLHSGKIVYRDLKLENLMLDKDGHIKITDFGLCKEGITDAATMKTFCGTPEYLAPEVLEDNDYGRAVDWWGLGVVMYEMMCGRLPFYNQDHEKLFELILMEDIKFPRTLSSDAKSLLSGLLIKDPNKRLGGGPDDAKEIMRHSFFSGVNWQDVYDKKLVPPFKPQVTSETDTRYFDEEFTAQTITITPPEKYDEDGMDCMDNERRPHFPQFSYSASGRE", "experiment": "Selectivity interaction (Kinase panel (Invitrogen)) EUB0000639a AKT3", "conditions": "at 200 nM"}, "[8]": {"biological_target": "Mast/stem cell growth factor receptor Kit (Homo sapiens, UniProt P10721)", "sequence (P10721 whole entry)": "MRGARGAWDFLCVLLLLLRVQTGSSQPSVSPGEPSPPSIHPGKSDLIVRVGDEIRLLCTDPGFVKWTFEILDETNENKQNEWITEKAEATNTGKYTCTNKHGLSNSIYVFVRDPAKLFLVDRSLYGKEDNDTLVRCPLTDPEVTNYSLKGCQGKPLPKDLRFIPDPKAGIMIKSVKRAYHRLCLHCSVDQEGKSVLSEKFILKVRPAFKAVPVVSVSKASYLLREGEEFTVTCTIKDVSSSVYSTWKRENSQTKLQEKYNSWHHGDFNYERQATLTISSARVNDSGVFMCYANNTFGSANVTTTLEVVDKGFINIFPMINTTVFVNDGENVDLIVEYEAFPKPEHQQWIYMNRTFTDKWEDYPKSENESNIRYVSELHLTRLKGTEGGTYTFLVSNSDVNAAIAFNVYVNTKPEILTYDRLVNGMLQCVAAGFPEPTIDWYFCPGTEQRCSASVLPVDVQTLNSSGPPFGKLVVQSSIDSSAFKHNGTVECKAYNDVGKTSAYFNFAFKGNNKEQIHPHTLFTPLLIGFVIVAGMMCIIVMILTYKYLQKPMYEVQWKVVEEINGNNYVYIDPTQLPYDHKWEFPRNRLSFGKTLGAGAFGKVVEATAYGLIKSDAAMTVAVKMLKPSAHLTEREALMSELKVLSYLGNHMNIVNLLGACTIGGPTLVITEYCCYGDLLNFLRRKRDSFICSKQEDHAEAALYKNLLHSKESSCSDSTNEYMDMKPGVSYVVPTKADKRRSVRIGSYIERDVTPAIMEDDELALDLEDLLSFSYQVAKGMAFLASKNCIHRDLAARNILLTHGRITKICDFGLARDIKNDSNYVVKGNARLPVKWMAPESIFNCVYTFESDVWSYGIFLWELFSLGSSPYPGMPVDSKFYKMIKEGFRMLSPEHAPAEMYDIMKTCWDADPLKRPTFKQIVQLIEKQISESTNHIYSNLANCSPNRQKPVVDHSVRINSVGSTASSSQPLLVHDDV", "experiment": "(§1) Selectivity interaction (KinomeScan (DiscoverX)) EUB0000229b KIT", "conditions": "at 10 µM"}, "[9]": {"system": "Mast/stem cell growth factor receptor Kit (Homo sapiens), P10721 [A829P]", "sequence (P10721 whole entry A829P)": "as the sequence (P10721 whole entry) above, with A829P counted along it", "experiment": "as §1", "conditions": "at 1 µM"}, "[10]": {"system": "Mast/stem cell growth factor receptor Kit (Homo sapiens), P10721 [V559D]", "sequence (P10721 whole entry V559D)": "as the sequence (P10721 whole entry) above, with V559D counted along it", "experiment": "as §1", "conditions": "at 1 µM"}, "[11]": {"system": "Mast/stem cell growth factor receptor Kit (Homo sapiens), P10721 [D816H]", "sequence (P10721 whole entry D816H)": "as the sequence (P10721 whole entry) above, with D816H counted along it", "experiment": "as §1", "conditions": "at 1 µM"}, "[12]": {"system": "Mast/stem cell growth factor receptor Kit (Homo sapiens), P10721 [V559D,T670I]", "sequence (P10721 whole entry V559D/T670I)": "as the sequence (P10721 whole entry) above, with V559D, T670I counted along it", "experiment": "as §1", "conditions": "at 1 µM"}, "[13]": {"system": "Mast/stem cell growth factor receptor Kit (Homo sapiens), P10721 [D816V]", "sequence (P10721 whole entry D816V)": "as the sequence (P10721 whole entry) above, with D816V counted along it", "experiment": "as §1", "conditions": "at 1 µM"}, "[14]": {"system": "Mast/stem cell growth factor receptor Kit (Homo sapiens), P10721 [L576P]", "sequence (P10721 whole entry L576P)": "as the sequence (P10721 whole entry) above, with L576P counted along it", "experiment": "as §1", "conditions": "at 1 µM"}, "[15]": {"system": "Mast/stem cell growth factor receptor Kit (Homo sapiens), P10721 [V559D,V654A]", "sequence (P10721 whole entry V559D/V654A)": "as the sequence (P10721 whole entry) above, with V559D, V654A counted along it", "experiment": "as §1", "conditions": "at 1 µM"}, "[16]": {"biological_target": "T2, Serine/threonine-protein kinase ULK2 (Homo sapiens) (UniProt Q8IYT8)", "T2 sequence (whole entry)": "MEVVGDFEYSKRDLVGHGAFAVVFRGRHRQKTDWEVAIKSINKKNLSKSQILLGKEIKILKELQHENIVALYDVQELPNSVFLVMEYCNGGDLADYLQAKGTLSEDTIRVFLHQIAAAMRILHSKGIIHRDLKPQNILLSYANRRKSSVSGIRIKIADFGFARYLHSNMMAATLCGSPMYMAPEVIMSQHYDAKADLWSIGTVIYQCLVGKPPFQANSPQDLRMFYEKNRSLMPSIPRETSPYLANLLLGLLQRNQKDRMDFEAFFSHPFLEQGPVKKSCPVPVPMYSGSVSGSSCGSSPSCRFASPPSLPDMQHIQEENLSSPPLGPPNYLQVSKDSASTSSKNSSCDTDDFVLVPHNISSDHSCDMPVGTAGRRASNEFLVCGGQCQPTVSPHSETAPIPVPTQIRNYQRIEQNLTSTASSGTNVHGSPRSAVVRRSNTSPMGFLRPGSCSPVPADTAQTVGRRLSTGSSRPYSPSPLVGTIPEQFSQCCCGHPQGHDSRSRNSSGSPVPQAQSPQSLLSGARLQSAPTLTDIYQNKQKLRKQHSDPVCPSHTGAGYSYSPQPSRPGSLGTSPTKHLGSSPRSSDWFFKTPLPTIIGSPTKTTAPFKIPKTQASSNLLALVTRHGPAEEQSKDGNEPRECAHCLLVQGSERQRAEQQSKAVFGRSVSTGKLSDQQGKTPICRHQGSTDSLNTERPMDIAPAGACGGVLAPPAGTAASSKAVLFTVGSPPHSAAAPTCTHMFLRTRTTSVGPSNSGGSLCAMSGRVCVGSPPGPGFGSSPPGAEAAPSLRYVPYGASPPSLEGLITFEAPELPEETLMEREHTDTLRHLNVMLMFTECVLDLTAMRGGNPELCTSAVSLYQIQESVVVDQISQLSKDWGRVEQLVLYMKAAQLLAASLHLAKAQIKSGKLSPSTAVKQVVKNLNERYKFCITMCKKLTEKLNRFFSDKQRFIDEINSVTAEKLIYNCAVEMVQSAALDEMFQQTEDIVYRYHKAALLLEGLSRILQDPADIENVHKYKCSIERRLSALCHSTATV", "experiment": "Selectivity interaction (KinomeScan (DiscoverX)) EUB0001049a ULK2", "conditions": "at 1 µM"}, "[17]": {"biological_target": "Serine/threonine-protein kinase PRP4 homolog (Homo sapiens) (UniProt Q13523)", "sequence (Q13523 whole entry)": "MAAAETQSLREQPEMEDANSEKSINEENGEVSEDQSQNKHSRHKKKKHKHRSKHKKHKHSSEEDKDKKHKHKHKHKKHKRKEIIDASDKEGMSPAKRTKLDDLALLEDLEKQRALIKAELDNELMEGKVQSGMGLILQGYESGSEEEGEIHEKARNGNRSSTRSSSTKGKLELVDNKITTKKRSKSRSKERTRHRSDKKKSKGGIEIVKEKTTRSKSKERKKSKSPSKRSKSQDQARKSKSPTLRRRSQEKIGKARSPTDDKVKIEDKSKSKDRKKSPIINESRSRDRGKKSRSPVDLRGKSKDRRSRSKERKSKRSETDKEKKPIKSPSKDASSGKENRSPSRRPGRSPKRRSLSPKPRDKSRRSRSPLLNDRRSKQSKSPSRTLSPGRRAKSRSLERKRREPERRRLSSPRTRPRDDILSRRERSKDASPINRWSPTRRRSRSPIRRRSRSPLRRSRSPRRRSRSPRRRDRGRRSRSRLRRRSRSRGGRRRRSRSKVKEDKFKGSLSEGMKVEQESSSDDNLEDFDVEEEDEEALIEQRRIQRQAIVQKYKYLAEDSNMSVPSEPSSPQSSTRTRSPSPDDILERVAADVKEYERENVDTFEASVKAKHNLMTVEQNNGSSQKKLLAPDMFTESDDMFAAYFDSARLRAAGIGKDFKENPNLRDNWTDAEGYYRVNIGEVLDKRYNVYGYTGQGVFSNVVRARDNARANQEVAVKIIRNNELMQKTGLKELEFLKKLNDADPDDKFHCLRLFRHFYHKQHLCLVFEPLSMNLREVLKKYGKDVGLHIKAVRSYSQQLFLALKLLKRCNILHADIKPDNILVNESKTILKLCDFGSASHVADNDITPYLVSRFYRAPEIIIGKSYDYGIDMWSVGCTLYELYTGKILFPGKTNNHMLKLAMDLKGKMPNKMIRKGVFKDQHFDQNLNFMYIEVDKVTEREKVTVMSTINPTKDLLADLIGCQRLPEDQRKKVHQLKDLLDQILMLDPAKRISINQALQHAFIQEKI", "experiment": "Selectivity interaction (KinomeScan (DiscoverX)) EUB0000092b PRPF4B", "conditions": "at 10 µM"}}, "data": [{"smiles": "Cc1cc(C)cc([C@@H]2c3cc(C)ccc3NC(=O)CN2C(=O)c2ccc(Br)s2)c1", "values": [{"measurement": "% of inhibition", "setting": "[1]", "value": 6, "unit": "%"}]}, {"smiles": "CN(C)C/C=C/C(=O)Nc1ccc(C(=O)N2CCCC(Nc3ncc(Cl)c(-c4c[nH]c5ccccc45)n3)C2)cc1", "note": "(configuration not stated)", "values": [{"measurement": "% of control", "setting": "[2]", "value": 95, "unit": "%"}]}, {"smiles": "CN1Cc2nccc(-c3cn(C)nc3-c3ccc(F)cc3)c2C1=O", "values": [{"measurement": "% of inhibition", "setting": "[3]", "value": 8, "unit": "%"}]}, {"smiles": "Nc1cnc(N2CCc3cc(S(=O)(=O)Nc4c(F)cc(Cl)cc4F)cc(N4CCCC4=O)c32)nc1", "note": "[TP-020n]", "values": [{"measurement": "% of control", "setting": "[4]", "value": 100, "unit": "%"}]}, {"smiles": "CNC(=O)Nc1ccc(-c2nc(N3CC4CCC(C3)O4)c3cnn(C4CCC5(CC4)OCCO5)c3n2)cc1", "values": [{"measurement": "% of control", "setting": "[5]", "value": 100, "unit": "%"}]}, {"smiles": "CC[C@@H]1[C@H](F)C(=O)N[C@@H]1COc1nccc2cc(C(N)=O)c(OC)cc12", "note": "[ZIMLOVISERTIB]", "values": [{"measurement": "% of inhibition", "setting": "[6]", "value": 2.51, "unit": "%"}, {"measurement": "% of inhibition", "setting": "[7]", "value": 1.08, "unit": "%"}]}, {"smiles": "COc1cc(N(C)c2ccnc3ccc(C(F)(F)F)cc23)cc(OC)c1OC", "values": [{"measurement": "% binding", "setting": "[8]", "value": 84, "unit": "%"}, {"measurement": "% binding", "setting": "[9]", "value": 72, "unit": "%"}, {"measurement": "% binding", "setting": "[10]", "value": 95, "unit": "%"}, {"measurement": "% binding", "setting": "[11]", "value": 79, "unit": "%"}, {"measurement": "% binding", "setting": "[12]", "value": 94, "unit": "%"}, {"measurement": "% binding", "setting": "[13]", "value": 95, "unit": "%"}, {"measurement": "% binding", "setting": "[14]", "value": 100, "unit": "%"}, {"measurement": "% binding", "setting": "[15]", "value": 100, "unit": "%"}]}, {"smiles": "COc1cc(Nc2nc(C)cc(-c3cnn4nc(OC)ccc34)n2)cc(C(F)(F)F)c1", "values": [{"measurement": "% of control", "setting": "[16]", "value": 92, "unit": "%"}]}, {"smiles": "CCC(=O)N1CCN(c2ccc(-n3c(=O)ccc4cnc5ccc(-c6cnc7ccccc7c6)cc5c43)cc2C(F)(F)F)CC1", "values": [{"measurement": "% of control", "setting": "[17]", "value": 100, "unit": "%"}]}]}
